Data taken from publication PMC4581874 (PLoS ONE, 2015).
“Also recorded” adds a separate entry of the source.

Columns and labels:
[1] = target: EGFR (Homo sapiens, UniProt P00533); test: In vitro kinase assay, EGFR; assay type: biochemical; conditions: for IC50: in vitro kinase assay, mean values; for inhibition at 1 µM: mean ± S.D., read-out: % inhibition at 1 μM, EGFR(h)
Description: All kinase assays were carried out using KinaseProfiler^TM and IC50 Profiler^TM (Millipore UK Ltd., Dundee, UK. Now Eurofins Scientific, Dundee, UK). All IC50 data were presented as the mean values.

[2] = target: T1, VEGFR-2 (Homo sapiens, UniProt P35968); test: In vitro kinase assay, VEGFR-2; assay type: biochemical; conditions: for IC50: in vitro kinase assay; for inhibition at 1 µM: mean ± S.D., read-out: % inhibition at 1 μM, VEGFR-2 (h)
T1 construct: purchased Millipore UK Ltd., Dundee, UK (now Eurofins Scientific); KinaseProfiler / IC50 Profiler service
Description: (§1) All kinase assays were carried out using KinaseProfiler^TM and IC50 Profiler^TM (Millipore UK Ltd., Dundee, UK. Now Eurofins Scientific, Dundee, UK). All IC50 data were presented as the mean values. The Curves obtained to determine IC50 values were shown in Supporting Information (S1 Fig).

[3] = target: T2, PDGFRβ (Homo sapiens, UniProt P09619); test: In vitro kinase assay, PDGFRβ; assay type: biochemical; conditions: 1 μM, mean ± S.D.; read-out: % inhibition at 1 μM, PDGFRβ (h)
T2 construct: purchased Millipore UK Ltd., Dundee, UK (now Eurofins Scientific); KinaseProfiler / IC50 Profiler service
Description: as §1

[4] = target: T3, PDGFRα (Homo sapiens, UniProt P16234); test: In vitro kinase assay, PDGFRα; assay type: biochemical; conditions: 1 μM, mean ± S.D.; read-out: % inhibition at 1 μM, PDGFRα (h)
T3 construct: purchased Millipore UK Ltd., Dundee, UK (now Eurofins Scientific); KinaseProfiler / IC50 Profiler service
Description: as §1

[5] = target: T4, EGFR (L858R) (Homo sapiens, UniProt P00533, L858R); test: In vitro kinase assay, EGFR (L858R); assay type: biochemical; conditions: 1 μM, mean ± S.D.; read-out: % inhibition at 1 μM, EGFR(L858R)(h)
T4 construct: purchased Millipore UK Ltd., Dundee, UK (now Eurofins Scientific); KinaseProfiler / IC50 Profiler service
Description: as §1

[6] = target: T5, FGFR1 (Homo sapiens, UniProt P11362); test: In vitro kinase assay, FGFR1; assay type: biochemical; conditions: 1 μM, mean ± S.D.; read-out: % inhibition at 1 μM, FGFR1 (h)
T5 construct: purchased Millipore UK Ltd., Dundee, UK (now Eurofins Scientific); KinaseProfiler / IC50 Profiler service
Description: as §1

[7] = target: T6, VEGFR-1 (Homo sapiens, UniProt P17948); test: In vitro kinase assay, VEGFR-1; assay type: biochemical; conditions: 1 μM, mean ± S.D.; read-out: % inhibition at 1 μM, VEGFR-1 (h)
T6 construct: purchased Millipore UK Ltd., Dundee, UK (now Eurofins Scientific); KinaseProfiler / IC50 Profiler service
Description: as §1

[8] = target: T7, VEGFR-3 (Homo sapiens, UniProt P35916); test: In vitro kinase assay, VEGFR-3; assay type: biochemical; conditions: 1 μM, mean ± S.D.; read-out: % inhibition at 1 μM, VEGFR-3 (h)
T7 construct: purchased Millipore UK Ltd., Dundee, UK (now Eurofins Scientific); KinaseProfiler / IC50 Profiler service
Description: as §1

[9] = target: T8, cKit (Homo sapiens, UniProt P10721); test: In vitro kinase assay, cKit; assay type: biochemical; conditions: 1 μM, mean ± S.D.; read-out: % inhibition at 1 μM, cKit(h)
T8 construct: purchased Millipore UK Ltd., Dundee, UK (now Eurofins Scientific); KinaseProfiler / IC50 Profiler service
Description: as §1

[10] = target: T9, FGFR3 (Homo sapiens, UniProt P22607); test: In vitro kinase assay, FGFR3; assay type: biochemical; conditions: 1 μM, mean ± S.D.; read-out: % inhibition at 1 μM, FGFR3 (h)
T9 construct: purchased Millipore UK Ltd., Dundee, UK (now Eurofins Scientific); KinaseProfiler / IC50 Profiler service
Description: as §1

[11] = system: HUVECs; test: VEGF-induced tube formation assay; assay type: cell-based, human; conditions: VEGF 50 ng/mL, compound 1 μg/mL
Description: For analyzing of the antagonistic response to VEGF, tube formation, scratch wound migration, and cell proliferation assays were performed after the exposure of HUVECs to 50 ng/mL VEGF-A (R&D Systems, Minneapolis, MN), which induced a significant angiogenic response. For the cell proliferation assays, cells were incubated overnight in endothelial basal media (EBM; Lonza, Walkersville, MD, USA) containing 0.5% FBS or supplemented with VEGF-A and/or VEGF inhibitors. The cells were washed with PBS and counted in 4 random microscope fields. The tube formation assay was performed by seeding cells on Matrigel-coated plates (BD Bioscience, Bedford, MA, USA) and incubating in EBM containing 0.5% FBS or supplemented with VEGF-A and/or VEGF inhibitors. After overnight incubation, tubule networks were quantified by measuring the tubule length in 4 random microscope fields. For the analysis of scratch wound migration, confluent cell monolayers grown on 6-well plates were scratched using a micropipette tip. […] Cell migration was observed by optical microscopy and quantified by measuring the number of cells that had migrated from the wound edges.
In (A) and (B), the number of cells was expressed as the fold change with respect to the number of cells seeded at day 0. […]

[12] = system: HUVECs; test: HUVEC viability assay (cytotoxicity); assay type: cell-based, human; conditions: 24 hours
Description: HCC827 cells were purchased from the American Type Culture Collection (ATCC, Manassas, VA, USA). Cells were grown in RPMI 1640 (Welgene Inc., Daegu, Republic of Korea) supplemented with 10% fetal bovine serum (FBS) (Welgene Inc.) and 1% penicillin-streptomycin (Gibco®, Life Technologies, Carlsbad, CA, USA) in a humidified 5% CO2 atmosphere at 37°C. Human umbilical vein endothelial cells (HUVECs, ScienCell Research Laboratories, Carlsbad, CA, USA) were cultured in endothelial growth medium-2 (EGM-2; Lonza, Walkersville, MD, USA) from passages 3 to 6.
For the HUVEC viability assay, HUVECs were treated with phosphate-buffered saline (PBS) or the indicated concentrations of VEGF inhibitors in EGM-2 medium for 24 hours. After the cells were washed with PBS, they were counted using an inverted light microscope (Nikon Eclipse Ti-U; Nikon Corp., Tokyo, Japan) in 5 random fields from each well.

[13] = system: HCC827 cells; test: HCC827 cell viability assay; assay type: cell-based; conditions: Homo sapiens, 72 h, read-out: HCC827 IC50 (anti-proliferative activity)
Description: HCC827 cells were purchased from the American Type Culture Collection (ATCC, Manassas, VA, USA). […] Human umbilical vein endothelial cells (HUVECs, ScienCell Research Laboratories, Carlsbad, CA, USA) were cultured in endothelial growth medium-2 (EGM-2; Lonza, Walkersville, MD, USA) from passages 3 to 6.
After a 24-hour incubation, the cells were treated with a series of test compound dilutions for 72 hours. Cell viability was assessed using EZ-Cytox (Daeil Lab Service, Seoul, South Korea) according to the manufacturer’s instructions.
Cells were incubated for 72 h with a range of concentrations of MKP101, and cell viability was measured using the WST-1 assay. […] Western blot analysis using antibodies to phosphorylated and total EGFR from a representative experiment is shown. Cells were incubated for 3 h at the indicated concentration. (C) Graph showing the relative intensities of the total and phosphorylated EGFR as determined by band densitometry. IC50, half-maximal inhibitory concentration.

T9 sequence (P22607 23-806): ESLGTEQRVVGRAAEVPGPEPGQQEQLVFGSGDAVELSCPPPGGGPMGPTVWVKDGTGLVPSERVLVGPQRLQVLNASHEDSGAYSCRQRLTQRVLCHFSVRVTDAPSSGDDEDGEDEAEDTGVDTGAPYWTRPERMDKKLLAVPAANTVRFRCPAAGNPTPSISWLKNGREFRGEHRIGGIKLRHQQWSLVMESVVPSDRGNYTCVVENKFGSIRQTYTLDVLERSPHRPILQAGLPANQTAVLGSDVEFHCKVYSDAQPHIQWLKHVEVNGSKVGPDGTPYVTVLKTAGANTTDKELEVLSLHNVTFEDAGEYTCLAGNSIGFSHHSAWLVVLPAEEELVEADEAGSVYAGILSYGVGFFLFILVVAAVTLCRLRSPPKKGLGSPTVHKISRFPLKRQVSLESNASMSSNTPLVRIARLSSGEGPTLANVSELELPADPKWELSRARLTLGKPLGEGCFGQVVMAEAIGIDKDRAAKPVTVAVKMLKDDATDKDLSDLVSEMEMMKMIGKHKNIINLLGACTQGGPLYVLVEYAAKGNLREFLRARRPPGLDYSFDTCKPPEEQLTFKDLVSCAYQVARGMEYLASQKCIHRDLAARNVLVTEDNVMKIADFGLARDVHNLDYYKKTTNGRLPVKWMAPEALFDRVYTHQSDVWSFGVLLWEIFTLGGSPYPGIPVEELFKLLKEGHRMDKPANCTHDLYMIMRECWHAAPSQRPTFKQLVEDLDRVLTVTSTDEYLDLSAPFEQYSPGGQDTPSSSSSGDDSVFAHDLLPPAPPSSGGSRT
T2 sequence (P09619 33-1106): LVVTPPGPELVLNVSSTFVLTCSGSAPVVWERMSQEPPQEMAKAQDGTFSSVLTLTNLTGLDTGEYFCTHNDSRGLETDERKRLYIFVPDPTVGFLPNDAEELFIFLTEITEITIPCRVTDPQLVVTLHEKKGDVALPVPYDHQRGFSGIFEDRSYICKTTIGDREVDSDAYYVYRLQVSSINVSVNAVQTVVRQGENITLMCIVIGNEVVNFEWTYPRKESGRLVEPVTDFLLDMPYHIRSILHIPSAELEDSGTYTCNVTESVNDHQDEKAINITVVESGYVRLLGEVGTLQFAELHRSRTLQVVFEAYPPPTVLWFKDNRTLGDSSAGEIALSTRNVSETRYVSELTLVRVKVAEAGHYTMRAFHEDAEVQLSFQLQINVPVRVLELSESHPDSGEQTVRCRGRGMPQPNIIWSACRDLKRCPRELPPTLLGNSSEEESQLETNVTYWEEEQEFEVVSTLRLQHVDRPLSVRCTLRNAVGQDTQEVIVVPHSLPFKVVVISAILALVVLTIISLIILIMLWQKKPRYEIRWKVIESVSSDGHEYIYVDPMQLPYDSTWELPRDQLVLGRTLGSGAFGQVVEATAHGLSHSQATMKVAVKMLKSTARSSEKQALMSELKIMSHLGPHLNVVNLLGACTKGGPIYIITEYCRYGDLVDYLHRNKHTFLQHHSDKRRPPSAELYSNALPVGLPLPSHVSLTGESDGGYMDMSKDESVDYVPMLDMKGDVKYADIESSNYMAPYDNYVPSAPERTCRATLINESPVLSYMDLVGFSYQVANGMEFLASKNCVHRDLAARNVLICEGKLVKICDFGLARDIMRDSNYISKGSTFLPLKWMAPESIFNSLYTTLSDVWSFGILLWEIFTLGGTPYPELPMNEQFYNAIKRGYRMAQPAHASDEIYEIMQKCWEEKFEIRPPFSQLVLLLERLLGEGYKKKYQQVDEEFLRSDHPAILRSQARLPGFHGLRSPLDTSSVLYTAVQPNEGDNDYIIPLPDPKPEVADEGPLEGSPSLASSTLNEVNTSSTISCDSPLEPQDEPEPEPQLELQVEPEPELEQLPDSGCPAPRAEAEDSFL
T6 sequence (P17948 27-1338): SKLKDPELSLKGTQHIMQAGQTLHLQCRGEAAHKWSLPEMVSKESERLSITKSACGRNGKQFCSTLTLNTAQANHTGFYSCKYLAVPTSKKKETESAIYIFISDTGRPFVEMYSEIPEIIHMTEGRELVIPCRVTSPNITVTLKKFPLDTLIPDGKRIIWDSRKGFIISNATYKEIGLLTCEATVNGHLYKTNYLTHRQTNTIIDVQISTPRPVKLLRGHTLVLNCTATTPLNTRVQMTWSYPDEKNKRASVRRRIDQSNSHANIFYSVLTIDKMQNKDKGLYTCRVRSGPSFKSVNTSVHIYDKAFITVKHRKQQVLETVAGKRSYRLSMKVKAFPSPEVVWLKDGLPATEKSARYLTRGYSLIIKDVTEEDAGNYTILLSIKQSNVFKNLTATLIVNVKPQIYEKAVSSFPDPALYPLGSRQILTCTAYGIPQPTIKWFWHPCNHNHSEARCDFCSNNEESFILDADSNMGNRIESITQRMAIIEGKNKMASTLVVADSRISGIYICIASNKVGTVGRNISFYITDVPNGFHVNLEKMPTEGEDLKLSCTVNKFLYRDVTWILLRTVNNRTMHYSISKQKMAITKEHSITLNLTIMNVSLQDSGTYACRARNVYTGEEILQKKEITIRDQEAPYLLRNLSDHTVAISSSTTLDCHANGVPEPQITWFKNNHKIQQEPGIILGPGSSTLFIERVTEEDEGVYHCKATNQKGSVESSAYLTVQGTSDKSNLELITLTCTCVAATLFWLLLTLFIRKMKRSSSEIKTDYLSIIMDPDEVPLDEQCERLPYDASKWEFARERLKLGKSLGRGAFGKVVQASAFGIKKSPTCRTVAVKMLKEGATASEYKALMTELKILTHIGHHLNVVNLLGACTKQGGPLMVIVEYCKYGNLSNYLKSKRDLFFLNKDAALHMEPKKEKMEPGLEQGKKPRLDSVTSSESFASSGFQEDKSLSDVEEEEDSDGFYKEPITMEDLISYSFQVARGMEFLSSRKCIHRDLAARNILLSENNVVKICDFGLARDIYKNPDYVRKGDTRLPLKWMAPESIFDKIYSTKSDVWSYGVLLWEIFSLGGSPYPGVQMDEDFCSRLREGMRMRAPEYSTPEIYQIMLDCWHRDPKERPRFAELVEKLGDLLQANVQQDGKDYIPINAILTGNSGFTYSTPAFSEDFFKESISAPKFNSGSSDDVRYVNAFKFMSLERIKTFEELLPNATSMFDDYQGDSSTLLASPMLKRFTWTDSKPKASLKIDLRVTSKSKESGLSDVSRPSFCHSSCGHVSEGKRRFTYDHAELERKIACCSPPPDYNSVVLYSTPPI
T4 sequence (P00533 25-1210 L858R): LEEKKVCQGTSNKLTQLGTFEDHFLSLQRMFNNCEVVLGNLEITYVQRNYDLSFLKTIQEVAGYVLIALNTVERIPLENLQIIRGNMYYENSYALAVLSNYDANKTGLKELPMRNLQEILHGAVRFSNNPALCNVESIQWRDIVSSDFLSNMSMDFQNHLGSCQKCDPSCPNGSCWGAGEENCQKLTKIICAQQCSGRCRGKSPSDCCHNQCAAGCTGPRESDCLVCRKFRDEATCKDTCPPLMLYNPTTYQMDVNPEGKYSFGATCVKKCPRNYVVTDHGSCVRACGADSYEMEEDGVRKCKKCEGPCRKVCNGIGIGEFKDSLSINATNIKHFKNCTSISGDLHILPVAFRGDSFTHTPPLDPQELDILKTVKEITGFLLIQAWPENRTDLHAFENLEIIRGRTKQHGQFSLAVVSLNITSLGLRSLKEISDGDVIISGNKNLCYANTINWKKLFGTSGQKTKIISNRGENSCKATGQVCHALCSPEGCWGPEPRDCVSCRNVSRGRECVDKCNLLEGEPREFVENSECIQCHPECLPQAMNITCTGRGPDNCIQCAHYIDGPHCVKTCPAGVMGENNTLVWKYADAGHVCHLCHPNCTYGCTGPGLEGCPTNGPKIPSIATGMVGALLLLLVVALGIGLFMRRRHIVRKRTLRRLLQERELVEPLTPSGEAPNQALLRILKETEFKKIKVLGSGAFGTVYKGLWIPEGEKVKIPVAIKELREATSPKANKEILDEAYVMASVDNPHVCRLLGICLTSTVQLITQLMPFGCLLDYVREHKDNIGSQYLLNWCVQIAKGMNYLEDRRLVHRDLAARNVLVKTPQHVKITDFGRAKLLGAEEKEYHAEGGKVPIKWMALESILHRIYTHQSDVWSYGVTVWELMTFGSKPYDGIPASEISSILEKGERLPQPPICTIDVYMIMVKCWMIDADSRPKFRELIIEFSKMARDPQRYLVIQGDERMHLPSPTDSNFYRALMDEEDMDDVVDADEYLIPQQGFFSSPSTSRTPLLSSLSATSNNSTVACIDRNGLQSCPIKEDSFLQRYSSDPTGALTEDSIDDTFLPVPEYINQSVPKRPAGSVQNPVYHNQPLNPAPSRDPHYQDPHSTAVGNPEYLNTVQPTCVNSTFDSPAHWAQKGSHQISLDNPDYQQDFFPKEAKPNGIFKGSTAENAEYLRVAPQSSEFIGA

COc1cc(Nc2nccc(N(C)c3ccc4[nH]ccc4c3)n2)cc(N2CCOCC2)c1 [MKP117]
IC50 [1]: 33 nM | IC50 [2]: 17 nM

Fc1cc(Nc2nccc(Nc3ccc4[nH]ccc4c3)n2)ccc1N1CCOCC1 [MKP113]
IC50 [1]: 1630 nM | IC50 [2]: 30 nM

CN(c1ccc2[nH]ccc2c1)c1cc(Nc2ccc(N3CCOCC3)cc2)ncn1 [MKP119]
IC50 [1]: 35 nM | IC50 [2]: > 3000 nM

c1nc(Nc2ccc(N3CCOCC3)cc2)cc(Nc2ccc3[nH]ccc3c2)n1 [MKP118]
IC50 [1]: 7 nM | IC50 [2]: 1200 nM

Cc1ccc(Nc2cc(Oc3ccc4[nH]ccc4c3)ncn2)cc1S(N)(=O)=O [MKP123]
inhibition at 1 µM [3]: 44 ± 3% | inhibition at 1 µM [1]: 100% | IC50 [1]: 18 nM | inhibition at 1 µM [4]: 30 ± 3% | inhibition at 1 µM [2]: 97% | IC50 [2]: 45 nM | inhibition at 1 µM [5]: 99 ± 1% | inhibition at 1 µM [6]: 20 ± 6% | inhibition at 1 µM [7]: 99 ± 1% | inhibition at 1 µM [8]: 100% | inhibition at 1 µM [9]: 53 ± 9% | inhibition at 1 µM [10]: 21 ± 2%

Cc1ccc(Nc2nccc(N(C)c3ccc4c(C)n(C)nc4c3)n2)cc1S(N)(=O)=O [Pazopanib, 5-[[4-[(2,3-dimethyl-2H-indazol-6-yl)methylamino]-2-pyrimidinyl]amino]-2-methyl-benzenesulfonamide, reference compound]
Effect on VEGF-induced increase in tube formation [11]: significantly inhibited | EGFR inhibition (in words) [1]: did not inhibit EGFR; also recorded: no inhibitory effect against EGFR | Cytotoxicity in HUVECs ([12]; 1 μg/mL): No cytotoxicity was observed | Cytotoxicity in HUVECs ([12]; 5 and 10 μg/mL): significant endothelial cytotoxicity

Cc1ccc(Nc2nccc(N(C)c3ccc4[nH]cc(C)c4c3)n2)cc1S(N)(=O)=O [MKP102]
inhibition at 1 µM [1]: 93 ± 2% | IC50 [1]: 55 nM | IC50 [13]: 197 nM

Cc1ccc(Nc2nccc(N(C)c3ccc4c(ccn4C)c3)n2)cc1S(N)(=O)=O [MKP104]
inhibition at 1 µM [1]: 20 ± 4% | IC50 [13]: 2680 nM

c1cc(Nc2ccc3[nH]ccc3c2)nc(Nc2ccc(OCCCCN3CCOCC3)cc2)n1 [MKP107]
IC50 [1]: 178 nM | IC50 [2]: 130 nM

Cc1cc2cc(N(C)c3ccnc(Nc4ccc(C)c(S(N)(=O)=O)c4)n3)ccc2[nH]1 [MKP103]
inhibition at 1 µM [1]: 42 ± 4% | IC50 [13]: 1630 nM

c1cc(Nc2nccc(Nc3ccc4[nH]ccc4c3)n2)cc(N2CCOCC2)c1 [MKP110]
IC50 [1]: 180 nM | IC50 [2]: 30 nM

CN(c1ccc2c(ccn2C)c1)c1ccnc(Nc2ccc(N3CCOCC3)cc2)n1 [MKP112]
IC50 [1]: 10100 nM | IC50 [2]: 360 nM

c1cc(Nc2ccc3[nH]ccc3c2)nc(Nc2ccc(OCCN3CCOCC3)cc2)n1 [MKP106]
IC50 [1]: 210 nM | IC50 [2]: 20 nM

Fc1cc(Nc2nccc(Nc3ccc4[nH]ccc4c3)n2)cc(N2CCOCC2)c1 [MKP114]
IC50 [1]: 610 nM | IC50 [2]: 41 nM

Cc1ccc(Nc2nccc(N(C)c3ccc4cc[nH]c4c3)n2)cc1S(N)(=O)=O [MKP105]
inhibition at 1 µM [1]: 47 ± 2% | IC50 [13]: 1460 nM

CN(c1ccc2[nH]ccc2c1)c1ccnc(Nc2ccc(OCCCCN3CCOCC3)cc2)n1 [MKP108]
IC50 [1]: 200 nM | IC50 [2]: 26 nM

COc1ccc(Nc2cc(Oc3ccc4[nH]ccc4c3)ncn2)cc1N1CCOCC1 [MKP121]
inhibition at 1 µM [3]: 48% | inhibition at 1 µM [1]: 94 ± 2% | IC50 [1]: 31 nM | inhibition at 1 µM [4]: 37 ± 1% | inhibition at 1 µM [2]: 96% | IC50 [2]: 30 nM | inhibition at 1 µM [5]: 98% | inhibition at 1 µM [6]: 29 ± 5% | inhibition at 1 µM [7]: 99 ± 2% | inhibition at 1 µM [8]: 98% | inhibition at 1 µM [9]: 70 ± 3% | inhibition at 1 µM [10]: 13 ± 4%

c1cc(Nc2ccc3[nH]ccc3c2)nc(Nc2ccc(N3CCOCC3)cc2)n1 [MKP109]
IC50 [1]: 240 nM | IC50 [2]: 50 nM

Cc1ccc(Nc2nccc(Oc3ccc4[nH]ccc4c3)n2)cc1S(N)(=O)=O [MKP122]
inhibition at 1 µM [3]: 92% | inhibition at 1 µM [1]: 35 ± 2% | IC50 [1]: 2040 nM | inhibition at 1 µM [4]: 87 ± 1% | inhibition at 1 µM [2]: 96% | IC50 [2]: 20 nM | inhibition at 1 µM [5]: 66% | inhibition at 1 µM [6]: 83% | inhibition at 1 µM [7]: 100% | inhibition at 1 µM [8]: 100% | inhibition at 1 µM [9]: 99 ± 1% | inhibition at 1 µM [10]: 65 ± 4%

Cn1ccc2cc(Nc3ccnc(Nc4ccc(N5CCOCC5)cc4)n3)ccc21 [MKP111]
IC50 [1]: 2240 nM | IC50 [2]: 1570 nM

c1nc(Nc2ccc(N3CCOCC3)cc2)cc(Oc2ccc3[nH]ccc3c2)n1 [MKP120]
IC50 [1]: 10 nM | IC50 [2]: 32 nM

COc1ccc(Nc2nccc(Nc3ccc4[nH]ccc4c3)n2)cc1N1CCOCC1 [MKP115]
IC50 [1]: 56 nM | IC50 [2]: 10 nM

COc1cc(Nc2nccc(Nc3ccc4[nH]ccc4c3)n2)cc(N2CCOCC2)c1 [MKP116]
IC50 [1]: 41 nM | IC50 [2]: 20 nM
